Experimental data from patent US20260085053A1, “BENZOFURAN DERIVATIVES AS SIK INHIBITORS AND THE USE THEREOF” (BEONE MEDICINES I GMBH, priority 2023, published 2026).

Assays:
[1] = target: T1, SIK2 kinase (full length, Thermo Fisher) (Homo sapiens, UniProt Q9H0K1); experiment: Biochemical activities determination for SIK2 protein (TR-FRET); details: 80 uM ATP, 0.5 μM substrate
T1 construct: SIK2 kinase (full length, Thermo Fisher); purchased Thermo Fisher
Summary of the method: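 Full-length SIK2 preincubated 60 min with 0–10 μM compound, then reacted 180 min at room temperature with 80 uM ATP and 0.5 μM biotinylated substrate (pH 7.5 Tris/MgCl2 buffer). Phosphorylation detected by TR-FRET (665/620 nm ratio, cryptate antibody/streptavidin-XL665) after overnight incubation; IC50 from four-parameter logistic fit.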

[2] = target: T2, SIK3 kinase (aa59-365, Thermo Fisher) (Homo sapiens, UniProt Q9Y2K2); experiment: Biochemical activities determination for SIK3 protein (TR-FRET); details: 125 uM ATP, 0.5 μM STK1 substrate
T2 construct: SIK3 kinase (aa59-365, Thermo Fisher); purchased Thermo Fisher
T2 sequence (Q9Y2K2 59-365): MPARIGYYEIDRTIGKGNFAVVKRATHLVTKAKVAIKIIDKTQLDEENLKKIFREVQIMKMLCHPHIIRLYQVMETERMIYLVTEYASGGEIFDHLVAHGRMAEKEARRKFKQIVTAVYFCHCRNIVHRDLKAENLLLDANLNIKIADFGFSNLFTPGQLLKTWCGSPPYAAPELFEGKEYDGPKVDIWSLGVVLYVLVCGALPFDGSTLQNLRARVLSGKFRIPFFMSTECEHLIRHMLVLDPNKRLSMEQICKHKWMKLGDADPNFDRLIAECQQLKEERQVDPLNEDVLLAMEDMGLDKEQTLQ
Summary of the method: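 SIK3 (aa59-365) was preincubated with compound (0-10 μM) for 60 min at room temperature in Tris buffer pH 7.5. The reaction was then started with 125 uM ATP and 0.5 μM STK1 substrate and run 180 min at room temperature. Phospho-substrate was detected by HTRF (665/620 nm ratio), and IC50 came from a four-parameter logistic fit.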

[3] = target: T3, SIK1 kinase (aa1-303, Thermo Fisher) (Homo sapiens, UniProt P57059); experiment: Biochemical activities determination for SIK1 protein (TR-FRET); details: 110 uM ATP, 0.5 μM STK1 substrate
T3 construct: SIK1 kinase (aa1-303, Thermo Fisher); purchased Thermo Fisher
T3 sequence (P57059 1-303): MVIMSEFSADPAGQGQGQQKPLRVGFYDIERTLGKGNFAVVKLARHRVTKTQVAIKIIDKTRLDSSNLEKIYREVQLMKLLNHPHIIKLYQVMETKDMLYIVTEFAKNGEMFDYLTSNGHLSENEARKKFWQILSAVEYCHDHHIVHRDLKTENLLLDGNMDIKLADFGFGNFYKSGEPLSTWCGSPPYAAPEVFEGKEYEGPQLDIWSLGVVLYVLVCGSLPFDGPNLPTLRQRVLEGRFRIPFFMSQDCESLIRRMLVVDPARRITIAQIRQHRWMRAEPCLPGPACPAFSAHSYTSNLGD
Summary of the method: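 TR-FRET kinase assay with SIK1 (aa1-303), 110 uM ATP, 0.5 μM STK1 substrate and 0-10 μM compound in Tris pH 7.5 with MgCl2, EGTA, DTT, Triton X-100. Enzyme preincubated with compound 60 min, reaction 180 min at room temperature; 665/620 nm ratio after overnight detection; IC50 from four-parameter logistic fit.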

T1 sequence (Q9H0K1 whole entry): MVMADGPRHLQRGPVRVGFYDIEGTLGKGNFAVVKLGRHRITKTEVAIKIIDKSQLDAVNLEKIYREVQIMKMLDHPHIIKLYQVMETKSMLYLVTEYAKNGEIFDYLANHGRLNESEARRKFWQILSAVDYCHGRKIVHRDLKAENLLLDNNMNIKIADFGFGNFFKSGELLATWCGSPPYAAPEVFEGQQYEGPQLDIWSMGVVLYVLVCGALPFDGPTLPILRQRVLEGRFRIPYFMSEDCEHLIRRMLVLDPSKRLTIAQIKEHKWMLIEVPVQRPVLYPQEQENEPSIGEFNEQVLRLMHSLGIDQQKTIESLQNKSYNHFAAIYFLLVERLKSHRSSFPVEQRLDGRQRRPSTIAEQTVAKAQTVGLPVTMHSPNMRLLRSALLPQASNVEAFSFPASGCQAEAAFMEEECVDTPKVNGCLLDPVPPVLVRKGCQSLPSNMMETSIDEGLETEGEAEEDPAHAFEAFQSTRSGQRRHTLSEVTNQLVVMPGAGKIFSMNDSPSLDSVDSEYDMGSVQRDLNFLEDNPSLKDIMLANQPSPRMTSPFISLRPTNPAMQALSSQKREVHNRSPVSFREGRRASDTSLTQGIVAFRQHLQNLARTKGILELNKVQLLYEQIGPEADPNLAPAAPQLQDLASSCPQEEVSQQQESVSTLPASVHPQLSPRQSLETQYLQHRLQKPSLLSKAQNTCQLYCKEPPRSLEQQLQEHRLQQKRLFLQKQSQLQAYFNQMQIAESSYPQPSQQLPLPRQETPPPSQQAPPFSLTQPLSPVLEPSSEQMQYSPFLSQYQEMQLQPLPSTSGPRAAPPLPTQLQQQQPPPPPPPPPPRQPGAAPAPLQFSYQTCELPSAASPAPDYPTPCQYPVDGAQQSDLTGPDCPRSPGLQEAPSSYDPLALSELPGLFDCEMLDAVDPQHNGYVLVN

Row | IC50 [1] [nM] | IC50 [2] [nM] | IC50 [3] [nM] | Structure (SMILES)
1 | 167 | 391 | > 10000 | COc1cc(-c2coc3cc(OCCN4CCOCC4)ccc23)cc2c1C(=O)N(CC(F)(F)F)CC2 [Compound 58, 8-methoxy-6-(6-(2-morpholinoethoxy)benzofuran-3-yl)-2-(2,2,2-trifluoroethyl)-3,4-dihydroisoquinolin-1 (2H)-one]
2 | 77 | 348 | > 10000 | COc1cc(-c2coc3cc(OCCN4CCCC4)ccc23)cc2c1C(=O)N(CC(F)(F)F)CC2 [Compound 59, 8-methoxy-6-(6-(2-(pyrrolidin-1-yl)ethoxy)benzofuran-3-yl)-2-(2,2,2-trifluoroethyl)-3,4-dihydroisoquinolin-1 (2H)-one]
3 | 635 | 421 | > 10000 | COc1cc(-c2coc3cc(OCc4cncn4C)ccc23)cc2c1C(=O)N(CC(F)(F)F)CC2 [Compound 60, 8-methoxy-6-(6-((1-methyl-1H-imidazol-5-yl)methoxy)benzofuran-3-yl)-2-(2,2,2-trifluoroethyl)-3,4-dihydroisoquinolin-1 (2H)-one]
4 | 147 | 322 | > 10000 | COc1cc(-c2coc3cc(OCC4CCCN4C)ccc23)cc2c1C(=O)N(CC(F)(F)F)CC2 (stereo not drawn) [Compound 61, 8-methoxy-6-(6-((1-methylpyrrolidin-2-yl)methoxy)benzofuran-3-yl)-2-(2,2,2-trifluoroethyl)-3,4-dihydroisoquinolin-1 (2H)-one]
5 | 76 | 122 | > 10000 | COc1cc(-c2coc3cc(OCCN4CCCC4)ccc23)cc(OC(F)F)c1C(=O)NC1CC1 [Compound 62, N-cyclopropyl-2-(difluoromethoxy)-6-methoxy-4-(6-(2-(pyrrolidin-1-yl)ethoxy)benzofuran-3-yl)benzamide]
6 | 67 | 300 | > 10000 | O=C1c2c(cc(-c3coc4cc(OCCN5CCCC5)ccc34)cc2OC(F)F)CCN1CC(F)(F)F [Compound 63, 8-(difluoromethoxy)-6-(6-(2-(pyrrolidin-1-yl)ethoxy)benzofuran-3-yl)-2-(2,2,2-trifluoroethyl)-3,4-dihydroisoquinolin-1 (2H)-one]
7 | 73 | 415 | > 10000 | COc1cc(-c2coc3cc(OCCN4CCCCC4)ccc23)cc2c1C(=O)N(CC(F)(F)F)CC2 [Compound 64, 8-methoxy-6-(6-(2-(piperidin-1-yl)ethoxy)benzofuran-3-yl)-2-(2,2,2-trifluoroethyl)-3,4-dihydroisoquinolin-1 (2H)-one]
8 | 103 | 313 | > 10000 | COc1cc(-c2coc3cc(OCCN4CCCC4)ccc23)cc2c1C(=O)N(CC#N)CC2 [Compound 65, 2-(8-methoxy-1-oxo-6-(6-(2-(pyrrolidin-1-yl)ethoxy)benzofuran-3-yl)-3,4-dihydroisoquinolin-2 (1H)-yl) acetonitrile]
9 | 58 | 132 | 6690 | COc1cc(-c2coc3cc(OCCN4CCCC4)ccc23)cc(OC(F)F)c1C(=O)NCC#N [Compound 66, N-(cyanomethyl)-2-(difluoromethoxy)-6-methoxy-4-(6-(2-(pyrrolidin-1-yl)ethoxy)benzofuran-3-yl)benzamide]
10 | 23 | 79 | 2450 | COc1cc(-c2coc3cc(OCCN4CCCC4)ccc23)cc(OC(F)F)c1C(=O)N[C@@H]1C[C@@H]1F [Compound 67, 2-(difluoromethoxy)-N-((1R,2S)-2-fluorocyclopropyl)-6-methoxy-4-(6-(2-(pyrrolidin-1-yl)ethoxy)benzofuran-3-yl)benzamide]
11 | 90 | 139 | 8180 | COc1cc(-c2coc3cc(OC(C)CN4CCCC4)ccc23)cc(OC(F)F)c1C(=O)N[C@@H]1C[C@@H]1F (stereo partly drawn) [Compound 68, 2-(difluoromethoxy)-N-((1R,2S)-2-fluorocyclopropyl)-6-methoxy-4-(6-((1-(pyrrolidin-1-yl)propan-2-yl)oxy)benzofuran-3-yl)benzamide]
12 | 41 | 45 | 1270 | COc1cc(-c2coc3cc(OCCN4CCOCC4)ccc23)cc(OC(F)F)c1C(=O)N[C@@H]1C[C@@H]1F [Compound 69, 2-(difluoromethoxy)-N-((1R,2S)-2-fluorocyclopropyl)-6-methoxy-4-(6-(2-morpholinoethoxy)benzofuran-3-yl)benzamide]
13 | 14 | 42 | 2950 | COc1cc(-c2coc3cc(OCCN4CCCCC4)ccc23)cc(OC(F)F)c1C(=O)N[C@@H]1C[C@@H]1F [Compound 70, 2-(difluoromethoxy)-N-((1R,2S)-2-fluorocyclopropyl)-6-methoxy-4-(6-(2-(piperidin-1-yl)ethoxy)benzofuran-3-yl)benzamide]
14 | 48 | 39 | 1380 | COc1cc(-c2coc3cc(OCCN4CC[C@@H](F)C4)ccc23)cc(OC(F)F)c1C(=O)N[C@@H]1C[C@@H]1F [Compound 71, 2-(difluoromethoxy)-N-((1R,2S)-2-fluorocyclopropyl)-4-(6-(2-((R)-3-fluoropyrrolidin-1-yl)ethoxy)benzofuran-3-yl)-6-methoxybenzamide]
15 | 6 | 31 | 461 | COc1cc(-c2coc3cc(OCCCN4CCCC4)ccc23)cc(OC(F)F)c1C(=O)N[C@@H]1C[C@@H]1F [Compound 72, 2-(difluoromethoxy)-N-((1R,2S)-2-fluorocyclopropyl)-6-methoxy-4-(6-(3-(pyrrolidin-1-yl)propoxy)benzofuran-3-yl)benzamide]
16 | 24 | 65 | 3260 | COc1cc(-c2coc3cc(OCCN(C)C)ccc23)cc(OC(F)F)c1C(=O)N[C@@H]1C[C@@H]1F [Compound 73, 2-(difluoromethoxy)-4-(6-(2-(dimethylamino)ethoxy)benzofuran-3-yl)-N-((1R,2S)-2-fluorocyclopropyl)-6-methoxybenzamide]
17 | 26 | 34 | 1130 | COc1cc(-c2coc3cc(OCCN4CC[C@H](F)C4)ccc23)cc(OC(F)F)c1C(=O)N[C@@H]1C[C@@H]1F [Compound 74, 2-(difluoromethoxy)-N-((1R,2S)-2-fluorocyclopropyl)-4-(6-(2-((S)-3-fluoropyrrolidin-1-yl)ethoxy)benzofuran-3-yl)-6-methoxybenzamide]
18 | 16 | 93 | 1740 | COc1cc(-c2coc3cc(OCCN4CCC4)ccc23)cc(OC(F)F)c1C(=O)N[C@@H]1C[C@@H]1F [Compound 75, 4-(6-(2-(azetidin-1-yl)ethoxy)benzofuran-3-yl)-2-(difluoromethoxy)-N-((1R,2S)-2-fluorocyclopropyl)-6-methoxybenzamide]
19 | 34 | 34 | 1010 | COc1cc(-c2coc3cc(OCCN4CCC(C(F)(F)F)C4)ccc23)cc(OC(F)F)c1C(=O)N[C@@H]1C[C@@H]1F (stereo partly drawn) [Compound 76, 2-(difluoromethoxy)-N-((1R,2S)-2-fluorocyclopropyl)-6-methoxy-4-(6-(2-(3-(trifluoromethyl)pyrrolidin-1-yl)ethoxy)benzofuran-3-yl)benzamide]
20 | 27 | 80 | 3370 | COc1cc(-c2coc3cc(OCCN4CCC[C@H]4C)ccc23)cc(OC(F)F)c1C(=O)N[C@@H]1C[C@@H]1F [Compound 77, 2-(difluoromethoxy)-N-((1R,2S)-2-fluorocyclopropyl)-6-methoxy-4-(6-(2-((R)-2-methylpyrrolidin-1-yl)ethoxy)benzofuran-3-yl)benzamide]
21 | 19 | 42 | 1890 | COc1cc(-c2coc3cc(OCCN4CC[C@@H](C)C4)ccc23)cc(OC(F)F)c1C(=O)N[C@@H]1C[C@@H]1F [Compound 78, 2-(difluoromethoxy)-N-((1R,2S)-2-fluorocyclopropyl)-6-methoxy-4-(6-(2-((R)-3-methylpyrrolidin-1-yl)ethoxy)benzofuran-3-yl)benzamide]
22 | 19 | 57 | 2190 | COc1cc(-c2coc3cc(OCCN4CC[C@@H](OC)C4)ccc23)cc(OC(F)F)c1C(=O)N[C@@H]1C[C@@H]1F [Compound 79, 2-(difluoromethoxy)-N-((1R,2S)-2-fluorocyclopropyl)-6-methoxy-4-(6-(2-((R)-3-methoxypyrrolidin-1-yl)ethoxy)benzofuran-3-yl)benzamide]
23 | 20 | 54 | 2850 | COc1cc(-c2coc3cc(OCCN4CCC[C@@H]4C)ccc23)cc(OC(F)F)c1C(=O)N[C@@H]1C[C@@H]1F [Compound 80, 2-(difluoromethoxy)-N-((1R,2S)-2-fluorocyclopropyl)-6-methoxy-4-(6-(2-((S)-2-methylpyrrolidin-1-yl)ethoxy)benzofuran-3-yl)benzamide]
